Non-standard residues stand in square brackets, D forms with d. Residues, ends and D or L forms follow the SMILES beside them. *: point of attachment. pY = N[C@@H](Cc1ccc(OP(=O)(O)O)cc1)C(=O)O; pT = C[C@@H](OP(=O)(O)O)[C@H](N)C(=O)O; Cbz = O=C(OCc1ccccc1)*; CH2F = FC*
Assays:
[1] = test system: HIV-1 NL4-3 in Raji-CD4-DCIR cells; experiment: HIV-1 binding/entry assay in Raji-CD4-DCIR cells (cell-associated p24 ELISA); assay type: cell-based; settings: for HIV-1 binding/entry: cells pretreated with inhibitor 10 min, pulsed with NL4-3 60 min, result in words; for Binding/entry: Table 3, pharmacological inhibitors, symbols not defined
Protocol: FIG. 2A: Raji-CD4 and Raji-CD4-DCIR cells were either left untreated or treated with SSG (100 μg/ml) for 10 min at 37° C. Thereafter, cells were pulsed with NL4-3 for 60 min. After three washes with PBS to remove non-adsorbed virus, cell-associated virus was quantified by measuring the p24 content. Data shown correspond to the means±SD of triplicate samples from three combined independent experiments. The asterisk denotes statistically significant data (*, P<0.05; **, P<0.01). FIG. 2B: Cells were either left untransfected or transfected with a sense or antisense oligonucleotide specific for the signalling protein of interest. Next, cells were pulsed with NL4-3 for 60 min. After three washes with PBS to eliminate unbound virus, cell-associated virus was quantified by measuring the p24 content. Data shown correspond to the means±SD of triplicate samples from three combined independent experiments. The asterisk denotes statistically significant data (*, P<0.05; **, P<0.01). After gene silencing, the diminution of the targeted protein was verified by western blots, provided as an insert for each graph.
Where indicated, parental Raji-CD4 cells (DCIR-negative) or Raji-CD4-DCIR transfectants (1×10^6) were pretreated with the indicated amount of a pharmacological inhibitor for 10 min or transfected with sense or antisense oligonucleotides as described below. Cells were then pulsed with NL4-3 (100 ng of p24) for 60 min at 37° C. Next the virus-cell mixture was washed 3 times with PBS to remove unbound virus and resuspended in PBS containing 1% BSA. To assess binding/entry, the p24 content was determined by our in-house ELISA assay^33.
Raji-CD4 and Raji-CD4-DCIR cells (1×10^6 cells) were washed with OptiMEM (Invitrogen Life Technologies) without serum and antibiotics. The phosphorothioate oligodeoxynucleotides (Listed in Table 1) (Invitrogen Life Technologies) were transfected at a final concentration of 10 μM/well^35 using Oligofectamine according to the manufacturer's instructions (Invitrogen Life Technologies). Silencing efficiency was monitored by western blot analysis.

[2] = test system: HIV-1 NL4-3 in Raji-CD4-DCIR cells; experiment: HIV-1 infection assay in Raji-CD4-DCIR cells, real-time PCR of spliced Tat mRNA; assay type: cell-based; settings: Table 3, pharmacological inhibitors; symbols not defined
Protocol: FIG. 6A: Raji-CD4 and Raji-CD4-DCIR were either left untreated or preincubated with tyrosine phosphatase inhibitor SSG (100 μg/ml); Syk inhibitor piceatannol (10 μM); Src inhibitor PP2 (10 μM); classical PKC inhibitor Gö6976 (1 μM); MAPK p38 inhibitor SB203580 (2 μM), MAP kinase inhibitor PD98059 ([…]) for 10 min. FIG. 6B: Raji-CD4 and Raji-CD4-DCIR were treated with Oligofectamine and then either left untreated or exposed to a sense or an antisense oligonucleotide against different signalling proteins during 5 hours. Next, cells were exposed to NL4-3 for 24 hours. Virus infection was determined by real-time PCR of spliced Tat mRNA. Data shown correspond to the means±SD of triplicate samples from three independent experiments. The asterisk denotes statistically significant data (*, P<0.05; ***, P<0.001).
For the infection assay performed before measuring Tat mRNA, Raji-CD4 and Raji-CD4-DCIR cells were treated with the indicated inhibitor or transfected with the indicated oligonucleotide (as described below). Cells were then pulsed with NL4-3 during 24 hours. […] The expression level of Tat mRNA was measured by real-time PCR, as described below.
Expression levels of TAT splice transcripts were determined using a Rotor-Gene™ system (Corbett Life Science). […] After elution, the amount and quality of RNA was assessed by measuring the absorbance at 260 and 280 nm. […]

CD4+ T cells = experiment: Cell toxicity / viability of CD4+ T cells; assay type: cell-based, human; settings: HIV-1-infected CD4+ T cells; data not shown
[3] = test system: DCIR expression in CD4+ T cells; experiment: HIV-1-mediated induction of DCIR expression in CD4+ T cells (flow cytometry); assay type: cell-based, human; settings: for HIV-1-mediated DCIR expression: cells pre-treated before virus infection, 3 days, result in words
Protocol: Mitogen-activated CD4^+ T cells (1×10^6) were first either left untreated or treated for 1 h with the caspase inhibitor Z-VAD-FMK (50 nM), after which HIV-1 was added (100 ng of p24), where indicated. DCIR expression was monitored 3 days later by flow cytometry. Data shown represent the means±SD of triplicate samples from three independent experiments.
Cells (1×10^6) were first either left untreated or treated for 1 h with NAC, after which HIV-1 (100 ng of p24) was added. DCIR expression was monitored 3 days later by flow cytometry. Expression of DCIR is shown as a dotted line, whereas the continuous line represents staining obtained with an isotype-matched irrelevant control Ab. Data shown correspond to a single experiment representative of 3 independent experiments.
Cell surface expression of DCIR was monitored by flow cytometric analysis (Epics ELITE ESP, Coulter Electronics, Burlington, Canada). Cells (1×10^6 cells) were incubated for 30 min with a pool of human serum to block the unspecific binding. After washing, the cells were incubated with PE-labeled anti-DCIR (0.25 μg) for 45 min at 4° C. and then washed twice with PBS and 0.5% BSA. Non-specific staining was determined by using an isotype-matched irrelevant control antibody. After two final washes with PBS, cells were fixed in 2% paraformaldehyde for 30 min and analyzed.

[4] = test system: DCIR expression in CD4+ T cells; experiment: DCIR expression in CD4+ T cells after H2O2 or other apoptosis inducers (flow cytometry); assay type: cell-based, human
Protocol: Next, DCIR expression was assessed by flow cytometry. Data shown represent the ratio of DCIR expression over basal expression. The ratio is calculated from the means±SD of triplicate samples from three independent experiments. […] FIG. 16A: […] Expression of DCIR is shown as a dotted line, whereas the continuous line represents staining obtained with an isotype-matched irrelevant control Ab. Data shown correspond to a single experiment representative of 3 independent experiments. FIG. 16B: […] Thereafter, DCIR surface expression and caspase activation were monitored by flow cytometric analysis using a double-staining method consisting of FITC-VAD-FMK followed by the R-PE-conjugated anti-DCIR. Data shown correspond to a single experiment representative of 4 independent experiments. Cell surface expression of DCIR was monitored by flow cytometric analysis (Epics ELITE ESP, Coulter Electronics, Burlington, Canada). […] After washing, the cells were incubated with PE-labeled anti-DCIR (0.25 μg) for 45 min at 4° C. and then washed twice with PBS and 0.5% BSA. Non-specific staining was determined by using an isotype-matched irrelevant control antibody. After two final washes with PBS, cells were fixed in 2% paraformaldehyde for 30 min and analyzed.

[5] = test system: HIV-1 NL4-3balenv in IM-MDDCs; experiment: HIV-1 binding/entry in IM-MDDCs transfected with ITIM peptides (p24); assay type: cell-based; settings: peptides inserted with Pro-Ject, NL4-3balenv 60 min; result in words
Protocol: (§1) FIG. 7A: Raji-CD4 cells were transduced with a retroviral vector expressing either a wild-type form of DCIR, a T6F mutant of DCIR, or a Y7F mutant of DCIR. Surface expression level of DCIR was assessed by flow cytometry using a combination of PE-labelled anti-DCIR antibody (dotted lines) and a control isotype-matched antibody (continuous lines). […] FIG. 7B: For the virus binding/entry assay shown in the left panel, the indicated cell lines were exposed to NL4-3. For the infection assay shown in the right panel, the same cells were exposed to NL4-3 for 2 hours at 37° C., and then maintained in culture for 9 days. FIG. 7C: IM-MDDCs were treated with Pro-Ject only, with a control peptide or an ITIM peptide, either not phosphorylated or phosphorylated on the tyrosine or threonine residue, during 5 min at 37° C. Next, cells were pulsed with NL4-3balenv for 60 min at 37° C. and washed extensively before measuring the p24 content (left panel). […] Cell-free culture supernatants were quantified by measuring the p24 content. […]
(§2) For assessing binding/entry, IM-MDDCs (3×10^5 cells in a final volume of 300 μl) transfected with one of the ITIM peptides were exposed to NL4-3balenv (30 ng of p24) for 60 min at 37° C. […] The p24 content was determined by ELISA. As for susceptibility of IM-MDDCs to HIV-1 infection, it was assessed by initially exposing 3×10^5 cells to NL4-3balenv (30 ng) for 2 hours at 37° C. […]

[6] = test system: HIV-1 NL4-3balenv in IM-MDDCs; experiment: HIV-1 infection of IM-MDDCs transfected with ITIM peptides (p24 in supernatants); assay type: cell-based; settings: peptides inserted with Pro-Ject, NL4-3balenv 2 hours, culture up to 9 days; result in words
Protocol: as §1, §2

Molecule: Cn1c2ccccc2c2c3c(c4c5ccccc5n(CCC#N)c4c21)CNC3=O [Go6976]
- HIV-1 binding/entry [1]: play a role

Molecule: O=S(=O)(NCCNC/C=C/c1ccc(Br)cc1)c1cccc2cnccc12 [H89]
- Infection [2]: Ø
- Binding/entry [1]: Ø
- HIV-1 binding/entry [1]: not participating

Molecule: C/C(O)=C(\C#N)C(=O)Nc1cc(Br)ccc1Br [LFM-A13]
- Infection [2]: Ø
- Binding/entry [1]: Ø
- HIV-1 binding/entry [1]: not involved

Molecule: CC(=O)N[C@@H](CS)C(=O)O [NAC, N-acetyl-L-cystein]
- cell toxicity (CD4+ T cells): no toxicity
- HIV-1-mediated DCIR expression [3]: inhibited but not completely
- HIV-1-induced expression of DCIR on the surface of CD4+ T cells ([3]; virus-infected cells also treated with NAC, n=3, 16.2±3.4% in HIV-1-infected cells without NAC): 6.7±1.7%

Molecule: COc1cccc(-c2cc(=O)c3ccccc3o2)c1N [PD98059]
- HIV-1 binding/entry [1]: significant decrease

Molecule: CC(C)(C)n1nc(-c2ccc(Cl)cc2)c2c(N)ncnc21 [PP2]
- HIV-1 binding/entry [1]: decreased

Molecule: Oc1cc(O)cc(/C=C/c2ccc(O)c(O)c2)c1 [Pic, piceatannol]
- HIV-1 binding/entry [1]: significantly decreases

Molecule: C[S+]([O-])c1ccc(-c2nc(-c3ccncc3)c(-c3ccc(F)cc3)[nH]2)cc1 (stereo not drawn) [SB203580]
- HIV-1 binding/entry [1]: significant decrease

Molecule: COC(=O)CC(NC(=O)C(C)NC(=O)C(NC(=O)OCc1ccccc1)C(C)C)C(=O)CF (stereo not drawn) [Z-VAD-FMK, Benzyloxycarbonyl-Val-Ala-Asp (OMe) fluoromethylketone] (Cbz-Val-Ala-Asp(OMe)-CH2F; configuration not given here)
- cell toxicity (CD4+ T cells): no toxicity
- DCIR expression in activated CD4+ T cells ([4]; cells treated with both H2O2 (30 μM) and Z-VAD-FMK (50 nM, 1 h pretreatment), n=3): 1.0±0.2%
- DCIR expression after H2O2 stimulation ([4]; pretreatment with Z-VAD-FMK, result in words): prevented
- HIV-1-mediated DCIR expression [3]: partially reduced

Molecule: CN[C@@H]1C[C@H]2O[C@@](C)([C@@H]1OC)n1c3ccccc3c3c4c(c5c6ccccc6n2c5c31)C(=O)NC4 [staurosporine]
- DCIR expression ([4]; CD4+ T cells treated with inducer, H2O2 20 to 60 μM, result in words): promoted

Molecule: C(=C\c1ccccc1)/c1ccccc1 [trans-stilbene]
- HIV-1 binding/entry [1]: inability of the inactive analog trans-stilbene to induce a comparable decrease

Molecule: TAMRA-EIT(PO3H2)YAEVRFKNEFKS-OH ({TAMRA}-EI[pT]YAEVRFKNEFKS-OH) [ITIM peptide phosphorylated on threonine]
- virus binding/entry [5]: decrease
- virus replication / infection [6]: decrease

Molecule: TAMRA-EITY(PO3H2)AEVRFKNES-OH ({TAMRA}-EIT[pY]AEVRFKNES-OH) [ITIM peptide phosphorylated on tyrosine]
- virus binding/entry [5]: decrease
- virus replication / infection [6]: decrease

From patent publication US9320773B2, “Compounds and therapeutic applications related to inhibition of dendritic cell immunoreceptor (DCIR) activity and signaling events” (priority 2010, dated 2016)
